Experimental data reported in patent US12532888B2, “Methods and uses of a mixture comprising alpha-cypermethrin and dinotefuran for combating or controlling mosquitoes” (priority 2020, dated 2026).

Test system: yellow fever mosquitoes (Aedes aegypti)
Assay: whole plant or invertebrate
Settings: for Colby Expected: 3 days after exposure
Experimental: Glass vials (20 mL scintillation) were treated with 445 μL of varying concentrations of α-cypermethrin dissolved in acetone, respectively dinotefuran or mixtures of α-cypermethrin and dinotefuran in the indicated ratios. Vials were turned on their sides and placed on an automated roller table. The vials were rolled (6 rpm) uncapped to allow an even coating of the treatment.
After rolling, vials were allowed to completely dry for at least an hour. Each treatment was replicated five times. Prior to exposure, yellow fever mosquitoes (Aedes aegypti) were incapacitated using a chill table. Approximately six mosquitoes were placed into each vial and were exposed to treatments at room temperature for exactly one hour. A small amount of CO2 was used to incapacitate the mosquitoes to facilitate removal from treatment. Insects were then transferred to 16 oz plastic holding containers. A cotton wick moistened with 10% sugar water was provided in each container. Holding containers were moved into an incubator with environmental conditions of 27° C. and 80% relative humidity. Wicks were rehydrated daily and mortality was assessed at 3 days after exposure (DAE).
Ataxia+mortality data were used to determine whether there was a synergistic effect in the combined use of dinotefuran and α-cypermethrin.
Abbott's correction for control mortality and the Colby method for testing synergy were used to analyze combination data. […] Colby's expected mortality per combination observation=% mortality (A)+% mortality (B)−(% mortality (A)×% mortality (B))/100. Synergy ratio=% observed mortality/% Colby expected mortality.
Additive interactions have synergy ratios equal to 1, antagonistic interactions have synergy ratios of less than 1, and synergistic interactions have synergy ratios of greater than 1.

SMILES | mortality at 0.00732 mg/m2 (Aedes aegypti, 72 h) [%] | Colby Expected (Table 1, expected mortality of the combination 0.00732 + 0.0732 mg/m^2 by Colby's formula) [%] | Colby Expected (Table 2, expected mortality of the combination 0.00732 + 7.32 mg/m^2 by Colby's formula) [%] | mortality at 0.0732 mg/m2 (Aedes aegypti, 72 h) [%] | mortality at 7.32 mg/m2 (Aedes aegypti, 72 h) [%]
CC1(C)C(C=C(Cl)Cl)C1C(=O)OC(C#N)c1cccc(Oc2ccccc2)c1 (racemic) [Alpha-cypermethrin, racemate comprising (R)-α-cyano-3-phenoxybenzyl (1S, 3S)-3-(2,2-dichlorovinyl)-2,2-dimethylcyclopropanecarboxylate; (S)-α-cyano-3-phenoxybenzyl (1R, 3R)-3-(2,2-dichlorovinyl)-2,2-dimethylcyclopropanecarboxylate] | 13.9 | 13.9 | 13.9 | – | –
CNC(=N[N+](=O)[O-])NCC1CCOC1 (racemic) [Dinotefuran, (RS)-1-methyl-2-nitro-3-(tetrahydro-3-furylmethyl) guanidine] | – | – | – | 0 | 0
